Experiments:
[1] = target: T1, Choline kinase alpha (ChoK) (Homo sapiens, UniProt P35790); assay: […]-choline phosphorylation in MDA-MB-231 cells; assay type: cell-based
[2] = target: T1, Choline kinase alpha (ChoK); assay: […]-choline phosphorylation in intact MDA-MB-231 cells, […] h; assay type: cell-based

T1 sequence (P35790 whole entry): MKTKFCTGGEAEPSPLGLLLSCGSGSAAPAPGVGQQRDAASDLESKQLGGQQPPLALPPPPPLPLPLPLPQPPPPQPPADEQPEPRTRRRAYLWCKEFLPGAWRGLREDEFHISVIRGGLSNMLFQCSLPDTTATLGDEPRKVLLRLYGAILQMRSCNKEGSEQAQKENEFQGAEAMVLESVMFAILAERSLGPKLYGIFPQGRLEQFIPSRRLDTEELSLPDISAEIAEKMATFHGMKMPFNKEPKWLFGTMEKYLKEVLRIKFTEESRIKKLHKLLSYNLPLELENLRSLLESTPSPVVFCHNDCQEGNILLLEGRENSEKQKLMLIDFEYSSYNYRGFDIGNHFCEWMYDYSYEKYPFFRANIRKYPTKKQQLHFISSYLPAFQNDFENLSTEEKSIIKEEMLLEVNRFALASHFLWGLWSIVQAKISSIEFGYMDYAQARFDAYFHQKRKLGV

| IC50 [1] | IC50 [2] | Structure (SMILES) |
| --- | --- | --- |
| 4.6 µM | – | CC1(C)C(/C=C/C=C/C=C/C=C2\N(CCO)c3ccccc3C2(C)C)=[N+](CCO)c2ccccc21 [JAS239, 1-(2-hydroxyethyl)-2-((1E,3E,5E)-7-((Z/E)-1-(2-hydroxyethyl)-3,3-dimethylindolin-2-ylidene)hepta-1,3,5-trien-1-yl)-3,3-dimethyl-3H-indol-1-ium chloride] |
| – | 2.3 µM | CN(C)c1cc[n+](Cc2ccc(CCCCc3ccc(C[n+]4ccc(N(C)C)cc4)cc3)cc2)cc1 [MN58b, 1,1′-((butane-1,4-diylbis(4,1-phenylene))bis(methylene))bis(4-(dimethylamino)pyridin-1-ium) bromide] |

Reference: PMC4209917 (Molecular cancer therapeutics, 2014)
